In ChEMBL document CHEMBL5579838, “Design, synthesis and antitumor activity of a novel FGFR2-selective degrader to overcome resistance of the FGFR2V564F gatekeeper mutation based on a pan-FGFR inhibitor” (Eur J Med Chem, 2024):
One block for each compound: values may come before it. Calls of active or inactive are those of the source. No cut-off for these calls is given here.

Experiments:
[1] = biological target: von Hippel-Lindau disease tumor suppressor/Fibroblast growth factor receptor 2 (Homo sapiens, UniProt P21802+P40337); test: PROTAC activity at VHL/FGFR2 in human KATO III cells assessed as induction of FGFR2 degradation incubated for 24 hrs by Western blot analysis; type: cell-based; conditions: kato iii stomach cancer cell line
[2] = biological target: T1, Fibroblast growth factor receptor 3 (Homo sapiens, UniProt P22607); test: Induction of FGFR3 degradation in human MCF7 cells assessed as reduction in FGFR3 level at 0 to 300 nM measured after 24 hrs by Western blot analysis; type: cell-based; conditions: dose 0-300 nM
Target sequence in this assay (P22607 23-806 limits assumed): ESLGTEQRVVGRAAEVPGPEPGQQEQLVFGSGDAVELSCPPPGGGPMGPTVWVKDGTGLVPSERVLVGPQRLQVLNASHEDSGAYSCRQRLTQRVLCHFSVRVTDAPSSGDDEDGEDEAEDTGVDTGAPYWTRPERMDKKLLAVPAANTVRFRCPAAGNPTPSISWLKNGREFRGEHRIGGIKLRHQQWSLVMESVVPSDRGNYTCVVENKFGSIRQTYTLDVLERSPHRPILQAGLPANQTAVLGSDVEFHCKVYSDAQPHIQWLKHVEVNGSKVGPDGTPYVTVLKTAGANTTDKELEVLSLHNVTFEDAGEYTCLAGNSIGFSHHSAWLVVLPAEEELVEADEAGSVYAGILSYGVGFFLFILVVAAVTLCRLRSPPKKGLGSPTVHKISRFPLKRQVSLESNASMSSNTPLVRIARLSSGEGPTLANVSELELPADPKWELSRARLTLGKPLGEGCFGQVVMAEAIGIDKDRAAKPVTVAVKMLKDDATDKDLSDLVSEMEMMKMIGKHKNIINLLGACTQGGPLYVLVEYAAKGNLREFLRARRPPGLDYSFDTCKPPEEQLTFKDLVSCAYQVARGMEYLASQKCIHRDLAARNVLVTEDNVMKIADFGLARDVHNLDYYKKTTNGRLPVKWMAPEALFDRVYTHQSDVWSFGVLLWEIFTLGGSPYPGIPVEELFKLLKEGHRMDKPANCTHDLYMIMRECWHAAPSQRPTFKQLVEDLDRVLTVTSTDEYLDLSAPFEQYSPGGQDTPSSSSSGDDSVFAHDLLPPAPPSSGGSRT

[3] = biological target: T2, Fibroblast growth factor receptor 4 (Homo sapiens, UniProt P22455); test: Induction of FGFR4 degradation in human Huh-7 cells assessed as reduction in FGFR4 level at 0 to 300 nM measured after 24 hrs by Western blot analysis; type: cell-based; conditions: dose 0-300 nM
Target sequence in this assay (P22455 22-802 limits assumed): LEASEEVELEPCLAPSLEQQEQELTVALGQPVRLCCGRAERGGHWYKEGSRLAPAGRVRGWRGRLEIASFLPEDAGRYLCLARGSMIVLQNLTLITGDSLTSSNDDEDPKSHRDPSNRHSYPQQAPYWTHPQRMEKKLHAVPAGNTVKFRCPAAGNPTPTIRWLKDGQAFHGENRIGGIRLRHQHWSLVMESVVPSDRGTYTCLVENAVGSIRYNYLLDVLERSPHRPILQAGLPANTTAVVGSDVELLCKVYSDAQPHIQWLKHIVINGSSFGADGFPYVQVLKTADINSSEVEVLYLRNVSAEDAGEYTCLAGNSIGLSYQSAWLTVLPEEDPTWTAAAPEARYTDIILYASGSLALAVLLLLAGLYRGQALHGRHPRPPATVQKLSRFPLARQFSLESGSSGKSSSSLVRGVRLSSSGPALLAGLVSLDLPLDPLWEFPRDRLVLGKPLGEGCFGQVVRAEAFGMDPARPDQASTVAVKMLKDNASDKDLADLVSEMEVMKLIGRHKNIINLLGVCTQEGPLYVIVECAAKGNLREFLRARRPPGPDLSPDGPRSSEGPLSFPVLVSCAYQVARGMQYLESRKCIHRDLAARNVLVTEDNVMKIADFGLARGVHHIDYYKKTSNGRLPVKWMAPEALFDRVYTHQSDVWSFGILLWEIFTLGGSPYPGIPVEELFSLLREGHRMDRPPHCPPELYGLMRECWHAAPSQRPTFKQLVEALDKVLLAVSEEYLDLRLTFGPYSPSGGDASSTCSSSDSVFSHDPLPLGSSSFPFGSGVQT

[4] = biological target: T3, Fibroblast growth factor receptor 1 (Homo sapiens, UniProt P11362); test: Induction of FGFR1 degradation in human BXPC-3 cells assessed as reduction in FGFR1 level at 300 nM measured after 24 hrs by Western blot analysis relative to control; type: cell-based; design: scale not given: the % may be the effect or the level left
Target sequence in this assay (P11362 22-822 limits assumed): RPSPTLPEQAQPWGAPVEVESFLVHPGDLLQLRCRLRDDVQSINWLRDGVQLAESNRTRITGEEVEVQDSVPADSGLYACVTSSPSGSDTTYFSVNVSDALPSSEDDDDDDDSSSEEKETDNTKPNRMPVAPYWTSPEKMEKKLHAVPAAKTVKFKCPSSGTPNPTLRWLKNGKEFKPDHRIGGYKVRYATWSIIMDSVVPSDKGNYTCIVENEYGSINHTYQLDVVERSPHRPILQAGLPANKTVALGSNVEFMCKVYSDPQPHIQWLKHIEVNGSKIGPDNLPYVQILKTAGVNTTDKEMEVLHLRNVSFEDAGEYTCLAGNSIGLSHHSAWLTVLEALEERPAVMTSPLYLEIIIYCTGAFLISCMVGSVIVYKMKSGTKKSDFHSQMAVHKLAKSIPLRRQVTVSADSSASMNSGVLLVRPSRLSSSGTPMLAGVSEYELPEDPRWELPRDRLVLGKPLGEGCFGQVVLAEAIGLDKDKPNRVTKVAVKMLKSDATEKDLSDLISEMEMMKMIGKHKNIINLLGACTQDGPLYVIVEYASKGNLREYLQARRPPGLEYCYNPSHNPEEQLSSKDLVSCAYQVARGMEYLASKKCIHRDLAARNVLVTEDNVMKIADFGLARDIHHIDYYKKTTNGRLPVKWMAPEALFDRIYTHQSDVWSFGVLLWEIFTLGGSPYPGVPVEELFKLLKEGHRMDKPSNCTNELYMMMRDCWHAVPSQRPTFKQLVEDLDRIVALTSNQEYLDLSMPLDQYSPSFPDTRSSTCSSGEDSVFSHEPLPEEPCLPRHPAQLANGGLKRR

[5] = biological target: Vascular endothelial growth factor receptor 2 (Homo sapiens) (UniProt P35968); test: Induction of VEGFR2 (unknown origin) degradation
[6] = system: KATO III stomach cancer cell line; test: Inhibition of PLC-gamma autophosphorylation in human KATO III cells at 1 to 10 nM measured after 24 hrs by Western blot analysis; type: cell-based; conditions: dose 1-10 nM
[7] = biological target: T4, Fibroblast growth factor receptor substrate 2 (Homo sapiens) (UniProt Q8WU20); test: Inhibition of FRS2 autophosphorylation in human KATO III cells at 1 to 10 nM measured after 24 hrs by Western blot analysis; type: cell-based; conditions: KATO III stomach cancer cell line, dose 1-10 nM
T4 sequence (whole entry): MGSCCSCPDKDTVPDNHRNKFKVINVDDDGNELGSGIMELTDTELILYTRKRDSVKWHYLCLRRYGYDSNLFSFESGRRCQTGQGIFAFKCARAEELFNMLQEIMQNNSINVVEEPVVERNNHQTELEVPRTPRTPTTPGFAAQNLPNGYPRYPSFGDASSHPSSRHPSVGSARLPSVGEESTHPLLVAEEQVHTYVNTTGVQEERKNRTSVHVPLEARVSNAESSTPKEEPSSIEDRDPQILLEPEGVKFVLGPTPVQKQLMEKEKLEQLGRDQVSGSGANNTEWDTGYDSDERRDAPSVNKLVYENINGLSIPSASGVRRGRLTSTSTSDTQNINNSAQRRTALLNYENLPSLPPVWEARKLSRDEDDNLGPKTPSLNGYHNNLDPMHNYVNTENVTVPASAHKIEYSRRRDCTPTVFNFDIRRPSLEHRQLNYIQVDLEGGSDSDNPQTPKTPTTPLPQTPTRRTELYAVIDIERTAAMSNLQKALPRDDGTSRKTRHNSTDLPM

[8] = biological target: T3, Fibroblast growth factor receptor 1
Target sequence in this assay (P11362 whole entry): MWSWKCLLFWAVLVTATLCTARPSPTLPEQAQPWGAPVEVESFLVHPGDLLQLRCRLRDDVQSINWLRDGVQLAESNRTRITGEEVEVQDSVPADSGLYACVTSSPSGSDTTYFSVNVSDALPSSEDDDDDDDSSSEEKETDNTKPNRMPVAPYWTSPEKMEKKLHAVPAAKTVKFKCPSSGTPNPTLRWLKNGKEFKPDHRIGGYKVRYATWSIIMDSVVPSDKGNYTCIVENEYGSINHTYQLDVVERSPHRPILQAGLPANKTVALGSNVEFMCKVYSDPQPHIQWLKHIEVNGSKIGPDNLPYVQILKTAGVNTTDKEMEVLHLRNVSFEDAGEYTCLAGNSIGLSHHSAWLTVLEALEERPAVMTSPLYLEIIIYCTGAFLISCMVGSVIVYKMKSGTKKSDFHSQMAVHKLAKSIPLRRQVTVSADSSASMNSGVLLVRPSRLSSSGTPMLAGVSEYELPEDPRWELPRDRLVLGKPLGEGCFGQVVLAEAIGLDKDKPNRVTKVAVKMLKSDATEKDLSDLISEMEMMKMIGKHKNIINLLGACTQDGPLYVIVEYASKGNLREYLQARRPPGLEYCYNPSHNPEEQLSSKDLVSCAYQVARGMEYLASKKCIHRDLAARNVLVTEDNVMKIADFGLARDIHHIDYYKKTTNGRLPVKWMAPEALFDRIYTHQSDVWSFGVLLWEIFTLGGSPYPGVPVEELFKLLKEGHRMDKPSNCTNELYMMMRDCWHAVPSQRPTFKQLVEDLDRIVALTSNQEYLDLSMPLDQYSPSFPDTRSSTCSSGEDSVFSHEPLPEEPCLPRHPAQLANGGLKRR
Description: Inhibition of FGFR1 (unknown origin)

[9] = biological target: T1, Fibroblast growth factor receptor 3
Target sequence in this assay (P22607 whole entry): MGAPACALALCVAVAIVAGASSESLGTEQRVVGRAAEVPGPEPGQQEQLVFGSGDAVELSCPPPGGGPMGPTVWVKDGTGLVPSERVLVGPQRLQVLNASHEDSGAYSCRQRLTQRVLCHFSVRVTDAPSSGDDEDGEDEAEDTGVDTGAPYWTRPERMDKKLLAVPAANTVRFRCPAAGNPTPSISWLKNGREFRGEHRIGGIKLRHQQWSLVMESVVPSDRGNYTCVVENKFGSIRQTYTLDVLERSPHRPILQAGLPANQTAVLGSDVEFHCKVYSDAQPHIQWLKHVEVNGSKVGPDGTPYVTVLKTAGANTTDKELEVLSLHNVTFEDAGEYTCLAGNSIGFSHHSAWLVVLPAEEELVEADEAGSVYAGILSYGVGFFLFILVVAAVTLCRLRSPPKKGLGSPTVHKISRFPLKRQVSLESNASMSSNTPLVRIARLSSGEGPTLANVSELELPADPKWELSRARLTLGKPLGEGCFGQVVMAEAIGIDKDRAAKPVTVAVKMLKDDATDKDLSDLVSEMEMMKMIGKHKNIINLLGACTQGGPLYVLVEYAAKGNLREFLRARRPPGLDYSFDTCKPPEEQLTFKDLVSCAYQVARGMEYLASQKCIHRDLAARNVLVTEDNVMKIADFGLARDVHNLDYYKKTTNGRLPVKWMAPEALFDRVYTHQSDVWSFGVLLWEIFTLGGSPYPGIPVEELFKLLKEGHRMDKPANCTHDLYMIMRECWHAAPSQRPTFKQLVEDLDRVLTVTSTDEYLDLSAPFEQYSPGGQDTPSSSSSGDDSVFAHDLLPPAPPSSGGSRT
Description: Inhibition of FGFR3 (unknown origin)

[10] = biological target: T2, Fibroblast growth factor receptor 4
Target sequence in this assay (P22455 whole entry): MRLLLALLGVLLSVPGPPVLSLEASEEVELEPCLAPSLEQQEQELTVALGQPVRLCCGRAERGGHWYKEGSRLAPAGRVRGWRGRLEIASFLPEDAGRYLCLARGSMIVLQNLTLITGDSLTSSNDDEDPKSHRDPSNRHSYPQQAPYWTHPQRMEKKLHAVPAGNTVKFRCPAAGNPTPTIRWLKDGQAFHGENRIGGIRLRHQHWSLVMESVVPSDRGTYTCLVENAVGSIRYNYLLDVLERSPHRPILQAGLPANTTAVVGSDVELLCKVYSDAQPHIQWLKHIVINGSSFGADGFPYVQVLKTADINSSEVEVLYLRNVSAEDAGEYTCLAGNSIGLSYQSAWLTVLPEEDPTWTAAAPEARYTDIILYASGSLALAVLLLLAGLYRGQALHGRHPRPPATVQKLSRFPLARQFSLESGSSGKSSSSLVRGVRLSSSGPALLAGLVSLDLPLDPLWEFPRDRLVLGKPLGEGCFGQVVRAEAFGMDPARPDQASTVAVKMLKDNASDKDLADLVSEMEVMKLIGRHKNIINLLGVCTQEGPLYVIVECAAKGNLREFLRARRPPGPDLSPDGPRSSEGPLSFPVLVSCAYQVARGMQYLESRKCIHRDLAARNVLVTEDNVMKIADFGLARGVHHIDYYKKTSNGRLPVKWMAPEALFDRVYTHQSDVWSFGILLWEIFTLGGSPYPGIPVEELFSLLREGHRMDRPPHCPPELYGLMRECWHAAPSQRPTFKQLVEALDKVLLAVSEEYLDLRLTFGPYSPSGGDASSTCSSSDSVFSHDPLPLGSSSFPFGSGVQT
Description: Inhibition of FGFR4 (unknown origin)

BaF3 [11] = test: Antiproliferative activity against mouse BaF3 cells stably expressing wild type ETV6-FGFR1 fusion protein incubated for 72 hrs by CCK-8 assay; type: functional, cell-based; conditions: BaF3, 72 h
BaF3 [12] = test: Antiproliferative activity against mouse BaF3 cells stably expressing wild type ETV6-FGFR2 fusion protein incubated for 72 hrs by CCK-8 assay; type: functional, cell-based; conditions: BaF3, 72 h
BaF3 [13] = test: Antiproliferative activity against mouse BaF3 cells stably expressing wild type ETV6-FGFR3 fusion protein incubated for 72 hrs by CCK-8 assay; type: functional, cell-based; conditions: BaF3, 72 h
BaF3 [14] = test: Antiproliferative activity against mouse BaF3 cells stably expressing wild type ETV6-FGFR4 fusion protein incubated for 72 hrs by CCK-8 assay; type: functional, cell-based; conditions: BaF3, 72 h
AN3-CA [15] = test: Inhibition of cell migration in adherent human AN3-CA cells overexpressing FGFR2 assessed as inhibition of lateral migration at 10 nM incubated for 48 hrs by wound healing assay relative to control; type: functional
[16] = system: KATO III stomach cancer cell line; test: Induction of cell cycle arrest at G0/G1 phase in FGFR2 amplified human KATO III cells at 0.1 to 10 nM incubated for 24 hrs by PI staining based flow cytometry analysis; type: functional; conditions: dose 0.1-10 nM
[17] = system: KATO III stomach cancer cell line; test: Induction of cell cycle arrest at G0/G1 phase in FGFR2 amplified human KATO III cells assessed as inhibition of cyclin D1 protein expression at 0.1 to 10 nM by Western blot analysis; type: functional, cell-based; conditions: dose 0.1-10 nM
[18] = system: KATO III stomach cancer cell line; test: Induction of cell cycle arrest at G0/G1 phase in FGFR2 amplified human KATO III cells assessed as inhibition of CDK4 protein expression at 0.1 to 10 nM by Western blot analysis; type: functional, cell-based; conditions: dose 0.1-10 nM
[19] = system: KATO III stomach cancer cell line; test: Induction of cell cycle arrest at G0/G1 phase in FGFR2 amplified human KATO III cells assessed as inhibition of CDK6 protein expression at 0.1 to 10 nM by Western blot analysis; type: functional, cell-based; conditions: dose 0.1-10 nM
[20] = Cmax in overnight fasted mouse at 1 mg/kg, iv administered as single dose by LC-MS/MS analysis; type: ADME, organism-based; conditions: in vivo
[21] = Half life in overnight fasted mouse at 1 mg/kg, iv administered as single dose by LC-MS/MS analysis; type: ADME, organism-based; conditions: in vivo
[22] = AUC (0 to t) in overnight fasted mouse at 1 mg/kg, iv administered as single dose by LC-MS/MS analysis; type: ADME, organism-based; conditions: in vivo
[23] = Cmax in overnight fasted mouse at 10 mg/kg, po administered as single dose by LC-MS/MS analysis; type: ADME, organism-based; conditions: in vivo
[24] = Tmax in overnight fasted mouse at 10 mg/kg, po administered as single dose by LC-MS/MS analysis; type: ADME, organism-based; conditions: in vivo
[25] = Half life in overnight fasted mouse at 10 mg/kg, po administered as single dose by LC-MS/MS analysis; type: ADME, organism-based; conditions: in vivo
[26] = AUC (0 to t) in overnight fasted mouse at 10 mg/kg, po administered as single dose by LC-MS/MS analysis; type: ADME, organism-based; conditions: in vivo
[27] = Oral bioavailability in overnight fasted mouse at 10 mg/kg administered as single dose by LC-MS/MS analysis; type: ADME, organism-based; conditions: in vivo
[28] = biological target: T1, Fibroblast growth factor receptor 3; test: Induction of FGFR3 degradation in human MCF7 cells assessed as reduction in FGFR3 level measured after 24 hrs by Western blot analysis; type: cell-based
Target sequence in this assay (P22607 whole entry): as the sequence (P22607 whole entry) above

[29] = biological target: T2, Fibroblast growth factor receptor 4; test: Induction of FGFR4 degradation in human Huh-7 cells assessed as reduction in FGFR4 level measured after 24 hrs by Western blot analysis; type: cell-based
Target sequence in this assay (P22455 whole entry): as the sequence (P22455 whole entry) above

[30] = biological target: T3, Fibroblast growth factor receptor 1; test: Induction of FGFR1 degradation in human BXPC-3 cells assessed as reduction in FGFR1 level measured after 24 hrs by Western blot analysis; type: cell-based
Target sequence in this assay (P11362 whole entry): as the sequence (P11362 whole entry) above

[31] = system: KATO III stomach cancer cell line; test: cells; conditions: Homo sapiens, 72 h
Description: Antiproliferative activity against FGFR2 amplified human KATO III cells measured after 3 days by MTT assay

SNU-16 = test: cells; conditions: Homo sapiens, SNU-16, 72 h
Description: Antiproliferative activity against FGFR2 amplified human SNU-16 cells measured after 72 hrs by MTT assay

AN3-CA [32] = test: cells; conditions: Homo sapiens, 72 h
Description: Antiproliferative activity against human AN3-CA cells overexpressing FGFR2 measured after 72 hrs by MTT assay

NCI-H1975 = test: cells; conditions: Homo sapiens, NCI-H1975, 72 h
A2780 = test: cells; conditions: Homo sapiens, A2780, 72 h
BXPC-3 = test: cells; conditions: Homo sapiens, BXPC-3, 72 h
cells = conditions: Homo sapiens, Huh-7, 72 h
MDA-MB-231 = test: cells; conditions: Homo sapiens, MDA-MB-231, 72 h
SNU-449 = test: cells; conditions: Homo sapiens, SNU-449, 72 h
HCT-116 = test: cells; conditions: Homo sapiens, HCT-116, 72 h
MCF7 = test: cells; conditions: Homo sapiens, MCF7, 72 h
in vitro [33] = conditions: human, L02 cells
in vitro [34] = conditions: human, HEK293T cells

DC50 [1]: 70 nM
Compound: COc1cc(OC)c(Cl)c(NC(=O)N(C)c2cc(Nc3ccc(N4CCN(CC(=O)N[C@H](C(=O)N5C[C@H](O)C[C@H]5C(=O)N[C@@H](C)c5ccc(-c6scnc6C)cc5)C(C)(C)C)CC4)cc3)ncn2)c1Cl

Activity [2]: inactive | Activity [3]: inactive | Activity [4]: 30% | Activity [5]: inactive | inhibition [7]: Active | IC50 [8]: 1.47 nM | IC50 [9]: 1.26 nM | IC50 [10]: 15.1 nM | IC50 (BaF3 [11]): 27.5 nM | IC50 (BaF3 [12]): 0.91 nM | IC50 (BaF3 [13]): 0.2 nM | IC50 (BaF3 [14]): 32.7 nM | Cmax [20]: 1940 ng/mL | half-life [21]: 4.14 min | AUC(0-t) [22]: 151 ng·h/mL | Cmax [23]: 19.4 ng/mL | Tmax [24]: 30 min | half-life [25]: 45 min | AUC(0-t) [26]: 9.61 ng·h/mL | bioavailability [27]: 0.64% | DC50 [28]: > 300 nM | DC50 [29]: > 300 nM | DC50 [30]: > 300 nM | IC50 [31]: 0.79 nM | IC50 (SNU-16): 0.207 nM | IC50 (AN3-CA [32]): 4.63 nM | IC50 (NCI-H1975): 2240 nM | IC50 (A2780): 627 nM | IC50 (BXPC-3): 997 nM | IC50 (cells): > 5000 nM | IC50 (MDA-MB-231): 2520 nM | IC50 (SNU-449): 923 nM | IC50 (HCT-116): 1910 nM | IC50 (MCF7): 2980 nM | IC50 at 72 h (in vitro [33]): > 5000 nM | IC50 at 72 h (in vitro [34]): 2140 nM
Compound: C[C@@H](Oc1ccc2[nH]nc(/C=C/c3cnn(CCNC(=O)CCCCCNc4ccc5c(c4)C(=O)N(C4CCC(=O)NC4=O)C5=O)c3)c2c1)c1c(Cl)cncc1Cl (stereo partly drawn)
inhibition [6]: Active | inhibition at 0.01 µM (AN3-CA [15]): > 15% | Activity [16]: Active | Activity [17]: Active | Activity [18]: Active | Activity [19]: Active
